The structures appear in SMILES notation.

Here are results for one molecule from patent publication US12303520B2, “Aqueous nebulization composition” (Nephron Pharmaceuticals Corporation, priority 2017, dated 2025).

The conditions of data set [1]: background statement, cited from earlier work.
Data set [2] can be described thus: Solubility of budesonide in solvents. Type of data set: physicochemical. An excerpt: Previous efforts to provide stable, inhalable budesonide solutions, including use of cyclodextrins or use of a modified budesonide, have not been proven pharmaceutically acceptable.

Regarding `CCC[C@@H]1O[C@@H]2C[C@H]3C4CCC5=CC(=O)C=CC5(C)[C@H]4[C@@H](O)CC3(C)[C@]2(C(=O)CO)O1` (mixture of isomers) [Budesonide, (RS)-11-beta, 16-alpha, 17,21-tetrahydroxypregna-I, 4-diene-3,20-dione cyclic 16,17-acetal with butyraldehyde], in data set [1] (heptanes), the “Solubility of budesonide in heptanes” value is reported as “practically insoluble”. Besides, the “Solubility of budesonide in alcohols” value in data set [1] (many alcohols (particularly polyhydric alcohols and organic, water-soluble glycols)) is on record as “sparingly soluble”. For the same molecule, in data set [1] (water), the “Solubility of budesonide in water” value is recorded as “practically insoluble”. Besides, the “Solubility of budesonide in pure glycerol” value in data set [2] is recorded as “not to be soluble”.
